These results are taken from ChEMBL document CHEMBL4818999, “Pyrido[2, 3-d]pyrimidin-7(8H)-ones as new selective orally bioavailable Threonine Tyrosine Kinase (TTK) inhibitors” (Eur J Med Chem, 2021).

By Kd is commonly meant a measure of binding affinity in units of concentration. The low end stands for a tighter complex, the high end for a looser complex. A word on the IC50: it is the midpoint of a concentration-inhibition curve. As usually defined, the Cmax is the maximum level reached in the sampled fluid or tissue. In general, AUC(0-inf) refers to total exposure, with the tail of the curve extrapolated. Low values mean low exposure, high ones high exposure. What is called clearance is the rate of elimination divided by the concentration. A high value points to a high capacity for elimination. By bioavailability is commonly meant dose-corrected exposure relative to a reference, in per cent. A word on the inhibition: it is the drop in the measured response relative to a control, in per cent. A higher inhibition goes with strong suppression.

In data set [1] the target is T1, Dual specificity protein kinase TTK (Homo sapiens, UniProt P33981).
T1 sequence (P33981 whole entry): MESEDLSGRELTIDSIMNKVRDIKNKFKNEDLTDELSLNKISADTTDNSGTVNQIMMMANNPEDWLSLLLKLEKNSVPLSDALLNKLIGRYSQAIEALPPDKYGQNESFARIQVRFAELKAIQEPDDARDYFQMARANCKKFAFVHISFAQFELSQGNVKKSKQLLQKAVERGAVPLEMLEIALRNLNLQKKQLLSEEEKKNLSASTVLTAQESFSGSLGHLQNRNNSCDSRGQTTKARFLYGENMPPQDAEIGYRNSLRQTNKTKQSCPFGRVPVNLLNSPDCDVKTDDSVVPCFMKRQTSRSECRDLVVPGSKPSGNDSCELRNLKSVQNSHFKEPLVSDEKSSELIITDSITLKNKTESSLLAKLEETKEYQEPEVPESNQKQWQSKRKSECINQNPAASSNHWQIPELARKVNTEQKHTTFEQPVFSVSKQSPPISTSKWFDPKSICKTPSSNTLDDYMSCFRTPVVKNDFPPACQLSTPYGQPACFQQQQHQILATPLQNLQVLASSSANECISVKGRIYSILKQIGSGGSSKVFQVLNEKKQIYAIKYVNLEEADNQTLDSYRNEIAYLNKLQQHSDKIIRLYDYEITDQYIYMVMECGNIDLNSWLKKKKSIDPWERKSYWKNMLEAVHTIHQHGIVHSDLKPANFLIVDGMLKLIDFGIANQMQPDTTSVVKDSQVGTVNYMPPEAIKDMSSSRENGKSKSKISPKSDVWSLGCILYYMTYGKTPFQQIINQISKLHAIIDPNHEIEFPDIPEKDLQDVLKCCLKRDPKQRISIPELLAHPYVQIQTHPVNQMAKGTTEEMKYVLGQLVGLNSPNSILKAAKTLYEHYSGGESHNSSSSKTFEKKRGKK
Nature of the data set: Binding affinity to wild-type human partial length TTK (N505 to V798 residues) expressed in bacterial expression system by active site-directed competition binding based Kinomescan method.

For data set [2], the target named is T1, Dual specificity protein kinase TTK. Nature of the data set: Inhibition of recombinant full-length human TTK using MBP as substrate incubated for 40 mins in presence of [gamma33P]ATP by scintillation counting based radiometry assay relative to control.
Data set [3] concerns HCT-116. Briefly: Antiproliferative activity against human HCT-116 cells assessed as growth inhibition after 96 hrs by CCK8 assay. The conditions noted are these: HCT-116, 96 h. The class given is functional, cell-based. In general terms: Tetrazolium dyes change colour on reduction, which living cells bring about.
In data set [4] the test system is NCI-H460. Briefly: Antiproliferative activity against human NCI-H460 cells assessed as growth inhibition after 96 hrs by CCK8 assay. The format is functional, cell-based. The conditions noted are these: NCI-H460, 96 h.
Data set [5] deals with HCT-116. Nature of the data set: Induction of apoptosis in human HCT-116 cells assessed as early apoptotic cells at 333.3 nM incubated for 48 hrs by annexin V and 7-AAD staining based flow cytometry analysis (reference value: 8.12 %). The class given is functional.
Data set [6] has as its system HCT-116. Nature of the data set: Induction of apoptosis in human HCT-116 cells assessed as late apoptotic cells at 111.1 nM incubated for 48 hrs by annexin V and 7-AAD staining based flow cytometry analysis (reference value: 8.59 %). The format is functional.
The subject of data set [7] is HCT-116. Briefly: Induction of apoptosis in human HCT-116 cells assessed as late apoptotic cells at 1000 nM incubated for 48 hrs by annexin V and 7-AAD staining based flow cytometry analysis (reference value: 8.59 %). The class given is functional. On the technique in general: In flow cytometry, cells or beads pass a laser one at a time.
The test system of data set [8] is HCT-116. Briefly: Induction of apoptosis in human HCT-116 cells assessed as late apoptotic cells at 333.3 nM incubated for 48 hrs by annexin V and 7-AAD staining based flow cytometry analysis (reference value: 1.20 %). The class given is functional.
The nature of data set [9]: Cmax in Sprague-Dawley rat at 5 mg/kg, iv. The class given is ADME, organism-based. Further details: route intravenous, dose 5 mg/kg. The note with it: in vivo.
Data set [10] in a line: Cmax in Sprague-Dawley rat at 25 mg/kg, po. The conditions noted are these: in vivo. The format is ADME, organism-based. Further details: route oral, dose 25 mg/kg.
Data set [11] in a line: AUC (0 to infinity) in Sprague-Dawley rat at 25 mg/kg, po. The class given is ADME, organism-based. Further details: time infinity, route oral, dose 25 mg/kg. The conditions noted are these: in vivo.
Data set [12] can be described thus: Clearance in Sprague-Dawley rat at 5 mg/kg, iv. The format is ADME, organism-based. The conditions noted are these: in vivo.
The nature of data set [13]: Oral bioavailability in Sprague-Dawley rat at 25 mg/kg. The class given is ADME, organism-based. The conditions noted are these: in vivo.
Data set [14] deals with HCT-116. Nature of the data set: Antitumor activity at human HCT-116 cells xenografted in CB17-SCID mouse assessed as tumor growth inhibition at 50 mg/kg, po administered daily, 2days on/ 4 days off and measured every 2 days for 16 days relative to control. The class given is functional. The conditions noted are these: HCT-116, po, 384 h, time 16 day, read-out: TGI. In general terms: In xenograft studies the graft and the host belong to different species.

Data set [15] has as its target Dual specificity protein kinase TTK (Homo sapiens) (UniProt P33981). The conditions noted are these: dose 100.0 nM, time 40.0 min.
Data set [16] addresses Serine/threonine-protein kinase DCLK1 (Homo sapiens) (UniProt O15075). The note with it: dose 100.0 nM.
Description: Inhibition of human DCAMKL1 at 100 nM by direct-filter Binding radiometric assay relative to control
Data set [17] deals with Maternal embryonic leucine zipper kinase (Homo sapiens) (UniProt Q14680). The conditions noted are these: dose 100.0 nM.
The target in data set [18] is Casein kinase II subunit alpha (Homo sapiens) (UniProt P68400). The note with it: dose 100.0 nM.
In data set [19] the target is Interleukin-1 receptor-associated kinase 1 (Homo sapiens, UniProt P51617). The conditions noted are these: dose 100.0 nM.
Description: Inhibition of human recombinant IRAK1 (198 to end) using myelin ba as substrate at 100 nM direct filter-binding radiometric kinase activity assay relative to control
Data set [20] concerns the target Mitogen-activated protein kinase 9 (Homo sapiens) (UniProt P45984). The conditions noted are these: dose 100.0 nM.
Description: Inhibition of human recombinant JNK2 using ATF2 at 100 nM direct filter-binding radiometric kinase activity assay relative to control
Data set [21] has as its target Myotonin-protein kinase (Homo sapiens) (UniProt Q09013). The note with it: dose 100.0 nM.
Description: Inhibition of human recombinant DMPK (1 to 549) using Axltide at 100 nM direct filter-binding radiometric kinase activity assay relative to control

Sequence of Serine/threonine-protein kinase DCLK1 (Homo sapiens) (O15075 whole entry): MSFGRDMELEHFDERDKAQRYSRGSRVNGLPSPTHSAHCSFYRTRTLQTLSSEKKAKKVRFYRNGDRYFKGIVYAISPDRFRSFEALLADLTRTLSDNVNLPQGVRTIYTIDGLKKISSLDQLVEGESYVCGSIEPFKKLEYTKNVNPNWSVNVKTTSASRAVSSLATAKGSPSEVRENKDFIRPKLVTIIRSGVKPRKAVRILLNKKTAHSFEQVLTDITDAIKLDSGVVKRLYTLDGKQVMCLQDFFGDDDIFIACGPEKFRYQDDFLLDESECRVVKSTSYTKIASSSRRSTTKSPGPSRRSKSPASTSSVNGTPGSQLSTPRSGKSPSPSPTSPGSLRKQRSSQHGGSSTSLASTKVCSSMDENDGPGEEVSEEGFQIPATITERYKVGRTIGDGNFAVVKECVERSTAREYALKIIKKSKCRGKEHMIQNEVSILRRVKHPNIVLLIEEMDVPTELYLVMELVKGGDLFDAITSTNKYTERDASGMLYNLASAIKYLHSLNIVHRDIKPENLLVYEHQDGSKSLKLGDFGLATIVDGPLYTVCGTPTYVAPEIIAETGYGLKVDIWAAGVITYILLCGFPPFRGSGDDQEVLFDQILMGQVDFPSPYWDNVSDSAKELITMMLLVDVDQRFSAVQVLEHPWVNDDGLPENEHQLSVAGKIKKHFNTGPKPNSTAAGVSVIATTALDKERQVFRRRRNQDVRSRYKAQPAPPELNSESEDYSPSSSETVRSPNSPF
Sequence of Mitogen-activated protein kinase 9 (Homo sapiens) (P45984 whole entry, looked up): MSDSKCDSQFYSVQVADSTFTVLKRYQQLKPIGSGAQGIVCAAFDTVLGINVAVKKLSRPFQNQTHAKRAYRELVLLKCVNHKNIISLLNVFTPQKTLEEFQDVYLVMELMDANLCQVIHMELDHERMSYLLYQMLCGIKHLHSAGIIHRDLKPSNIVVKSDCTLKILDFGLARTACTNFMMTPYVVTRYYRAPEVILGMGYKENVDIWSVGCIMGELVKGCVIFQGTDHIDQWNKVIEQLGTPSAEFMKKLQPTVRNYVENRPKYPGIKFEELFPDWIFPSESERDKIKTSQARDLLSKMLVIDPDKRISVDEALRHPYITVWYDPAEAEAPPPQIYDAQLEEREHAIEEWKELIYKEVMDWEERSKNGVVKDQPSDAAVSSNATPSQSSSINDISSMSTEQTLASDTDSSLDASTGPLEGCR
Sequence of Casein kinase II subunit alpha (Homo sapiens) (P68400 whole entry, looked up): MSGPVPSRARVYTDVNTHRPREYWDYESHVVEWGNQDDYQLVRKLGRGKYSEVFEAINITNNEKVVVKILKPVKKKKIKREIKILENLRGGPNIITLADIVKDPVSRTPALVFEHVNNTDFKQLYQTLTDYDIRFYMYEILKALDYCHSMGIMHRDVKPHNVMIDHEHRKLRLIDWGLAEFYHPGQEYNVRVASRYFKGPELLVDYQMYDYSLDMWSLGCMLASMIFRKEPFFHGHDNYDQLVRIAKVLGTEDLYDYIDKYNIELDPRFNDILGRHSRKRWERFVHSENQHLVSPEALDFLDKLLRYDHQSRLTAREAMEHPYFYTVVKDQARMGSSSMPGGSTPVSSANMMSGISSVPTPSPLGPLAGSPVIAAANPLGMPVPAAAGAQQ
Sequence of Maternal embryonic leucine zipper kinase (Homo sapiens) (Q14680 whole entry, looked up): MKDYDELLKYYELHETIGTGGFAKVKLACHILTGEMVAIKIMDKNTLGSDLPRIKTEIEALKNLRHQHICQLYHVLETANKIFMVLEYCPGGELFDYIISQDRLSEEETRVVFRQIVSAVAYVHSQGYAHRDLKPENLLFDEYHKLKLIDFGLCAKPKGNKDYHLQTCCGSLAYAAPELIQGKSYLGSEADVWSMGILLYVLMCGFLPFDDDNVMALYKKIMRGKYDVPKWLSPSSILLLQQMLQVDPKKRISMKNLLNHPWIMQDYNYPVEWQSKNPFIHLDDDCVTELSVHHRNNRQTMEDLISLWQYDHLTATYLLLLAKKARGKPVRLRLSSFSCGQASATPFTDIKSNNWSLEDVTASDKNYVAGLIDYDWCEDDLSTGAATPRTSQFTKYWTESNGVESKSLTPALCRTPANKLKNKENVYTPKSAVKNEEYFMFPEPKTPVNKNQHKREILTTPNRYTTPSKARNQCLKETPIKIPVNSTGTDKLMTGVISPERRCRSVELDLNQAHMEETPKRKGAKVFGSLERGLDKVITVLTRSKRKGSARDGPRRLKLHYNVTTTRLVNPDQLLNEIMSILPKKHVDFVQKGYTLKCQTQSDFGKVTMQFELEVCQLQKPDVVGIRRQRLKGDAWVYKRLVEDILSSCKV
Sequence of Myotonin-protein kinase (Homo sapiens) (Q09013 whole entry): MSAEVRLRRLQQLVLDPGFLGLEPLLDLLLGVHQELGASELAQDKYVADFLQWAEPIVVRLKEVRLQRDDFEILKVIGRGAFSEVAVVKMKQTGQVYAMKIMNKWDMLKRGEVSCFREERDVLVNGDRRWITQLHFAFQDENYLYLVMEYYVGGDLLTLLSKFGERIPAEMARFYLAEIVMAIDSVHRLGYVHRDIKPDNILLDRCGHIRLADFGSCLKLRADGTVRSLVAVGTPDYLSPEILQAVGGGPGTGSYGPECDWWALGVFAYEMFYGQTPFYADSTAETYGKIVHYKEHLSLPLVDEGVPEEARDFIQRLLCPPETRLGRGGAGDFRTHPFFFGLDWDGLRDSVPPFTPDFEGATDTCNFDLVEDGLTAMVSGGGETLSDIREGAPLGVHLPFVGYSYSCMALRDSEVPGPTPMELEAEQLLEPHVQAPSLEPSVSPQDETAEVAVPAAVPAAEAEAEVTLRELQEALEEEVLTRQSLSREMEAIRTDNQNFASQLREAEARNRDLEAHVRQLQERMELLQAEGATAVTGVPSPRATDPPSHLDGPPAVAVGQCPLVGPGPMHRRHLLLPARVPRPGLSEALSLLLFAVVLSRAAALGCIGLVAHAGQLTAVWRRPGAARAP
Sequence of Interleukin-1 receptor-associated kinase 1 (P51617 whole entry, looked up): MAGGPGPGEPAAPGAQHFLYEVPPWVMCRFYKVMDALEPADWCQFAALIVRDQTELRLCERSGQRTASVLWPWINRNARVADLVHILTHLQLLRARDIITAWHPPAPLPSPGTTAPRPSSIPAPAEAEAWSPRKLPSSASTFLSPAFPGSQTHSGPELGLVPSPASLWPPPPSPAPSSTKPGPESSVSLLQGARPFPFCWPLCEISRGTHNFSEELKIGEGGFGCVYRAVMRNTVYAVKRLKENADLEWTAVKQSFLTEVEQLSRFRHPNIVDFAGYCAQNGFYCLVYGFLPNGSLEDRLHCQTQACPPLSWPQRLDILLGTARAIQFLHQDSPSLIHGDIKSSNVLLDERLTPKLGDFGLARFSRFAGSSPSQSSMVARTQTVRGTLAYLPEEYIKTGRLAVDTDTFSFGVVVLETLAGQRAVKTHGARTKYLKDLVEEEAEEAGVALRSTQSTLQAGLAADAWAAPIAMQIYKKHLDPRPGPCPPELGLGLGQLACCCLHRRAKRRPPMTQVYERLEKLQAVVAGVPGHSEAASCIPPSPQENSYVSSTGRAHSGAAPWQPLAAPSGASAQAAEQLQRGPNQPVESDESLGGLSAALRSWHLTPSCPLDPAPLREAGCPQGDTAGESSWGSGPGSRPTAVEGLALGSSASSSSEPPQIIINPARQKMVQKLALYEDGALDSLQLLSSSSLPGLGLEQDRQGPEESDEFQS

As to `COc1cc(N2CCN(C)CC2)ccc1Nc1ncc2c(C)cc(=O)n([C@H]3CC[C@@H](NC(=O)C4CCCCC4)CC3)c2n1`, the affinity in [1], expressed as Kd, was 0.00015 µM. Further, the IC50 in [2] was 0.023 µM; in [3] it was 0.41 µM; in [4], 1.09 µM. Also, the Activity in data set [5] is on record as 13.5%; in data set [6], 5.3%; in data set [7] it was 21.18%; in [8], 2.04%. For the same compound, the Cmax worked out at 2530 ng/mL in data set [9] and 1230 ng/mL in [10]. The same compound yielded an area under the curve AUC(0-inf) in data set [11] of 13000 ng·h/mL. The compound also showed a clearance in [12] of 15.8 mL/min/kg. This compound came in with a bioavailability in data set [13] of 45.2%. The inhibition in vivo at 50 mg/kg in [14] came out at 29%. Moreover, the inhibition in data set [15] amounted to 98.1%; in [16], 80%; in data set [17], 77%; in data set [18] it was 69%; in data set [19], 91.8%; in [20], 86%. In [21], this compound came in with an inhibition of 81%.
